pIC50: −log10 of the molar value.
Target: T1, human recombinant USP30 (Homo sapiens, UniProt Q70CQ3)
T1 construct: purchased Boston Biochem E-582
T1 sequence (Q70CQ3 1-517): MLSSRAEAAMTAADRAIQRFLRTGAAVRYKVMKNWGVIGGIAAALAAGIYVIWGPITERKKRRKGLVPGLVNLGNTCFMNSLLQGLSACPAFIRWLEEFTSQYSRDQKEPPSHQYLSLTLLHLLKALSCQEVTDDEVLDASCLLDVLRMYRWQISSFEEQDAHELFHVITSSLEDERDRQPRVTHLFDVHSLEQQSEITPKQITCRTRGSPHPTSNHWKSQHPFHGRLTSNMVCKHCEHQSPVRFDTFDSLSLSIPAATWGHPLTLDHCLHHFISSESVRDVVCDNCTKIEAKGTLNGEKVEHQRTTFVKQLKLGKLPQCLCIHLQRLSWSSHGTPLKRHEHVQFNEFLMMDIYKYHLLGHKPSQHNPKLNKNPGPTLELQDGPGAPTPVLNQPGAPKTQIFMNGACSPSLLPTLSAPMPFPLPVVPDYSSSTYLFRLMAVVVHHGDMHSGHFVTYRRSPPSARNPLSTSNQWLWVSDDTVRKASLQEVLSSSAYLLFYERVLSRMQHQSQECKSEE
Assay: Ubiquitin-Rhodamine 110 Assay for USP30 Activity (USP30 Inhibitor Biochemical Assay)
Settings: 0.2 nM USP30, 25 nM Ub-Rh110, 30 min preincubation, 30 min at room temperature; read-out: USP30 potency range (USP30 biochemical IC50 assay, IC50 ranges)
Method: Example A: Biochemical Assay: Ubiquitin-Rhodamine 110 Assay for USP30 Activity (USP30 Inhibitor Biochemical Assay)
The assay was performed in a final volume of 9 μL in assay buffer containing 20 mM Tris-HCl (pH 8.0, (1M Tris-HCl, pH 8.0 solution; Corning 46-031-CM)), 1 mM GSH (L-glutathione reduced, Sigma-Aldrich, G4251-100G), 0.03% BGG (0.22 μM filtered, Sigma, G7516-25G), and 0.01% Triton X-100 (Sigma, T9284-10L). Nanoliter quantities of 10-point, 3-fold serial dilution in DMSO were pre-dispensed into 1536 assay plates (Corning, #3724BC) for a final test concentration of 25 μM to 1.3 nM, top to lowest dose, respectively. Concentration and incubation times were optimized for the maximal signal-to-background while maintaining initial velocity conditions at a fixed substrate concentration. The final concentration of USP30 (human recombinant USP30, Boston Biochem, cat. # E-582) in the assay was 0.2 nM. […] 3 μL of 2×USP30 was added to assay plates (pre-stamped with compound), preincubated for 30 minutes and then treated with 3 μL of 2×Ub-Rh110. Plates were incubated for 30 minutes at room temperature before addition of 3 μL of stop solution (final concentration of 10 mM citric acid (Sigma, 251275-500G)). Fluorescence was read on the Envision (excitation at 485 nm and emission at 535 nm; Perkin Elmer) or on the PheraSTAR (excitation at 485 nm and emission at 535 nm; BMG Labtech).
For all assay formats data were reported as percent inhibition compared with control wells based on the following equation: % inh=1−((FLU−AveLow)/(AveHigh−AveLow)) where FLU=measured Fluorescence, AveLow=average Fluorescence of no enzyme control (n=16), and AveHigh=average Fluorescence of DMSO control (n=16). IC50 values were determined by curve fitting of the standard 4 parameter logistic fitting algorithm included in the Activity Base software package: IDBS XE Designer Model205. Data is fitted using the Levenburg Marquardt algorithm.

| SMILES | pIC50 |
| --- | --- |
| CN(c1nc(Cl)c(C2CCCCC2)s1)C(=O)[C@]1(F)C[C@H](NC#N)C1 [Compound 1-55, (1r,3r)-N-(4-chloro-5-cyclohexyl-1,3-thiazol-2-yl)-3-(cyanoamino)-1-fluoro-N-methylcyclobutane-1-carboxamide] | > 7.00 |
| N#CN[C@H]1C[C@](F)(C(=O)Nc2cc(-c3ccc(C(F)(F)F)cc3)n[nH]2)C1 [Compound 1-56, (1s,3s)-3-(cyanoamino)-1-fluoro-N-{3-[4-(trifluoro-methyl)phenyl]-1H-pyrazol-5-yl}cyclobutane-1-carboxamide] | 6.00 to 7.00 |
| N#CN[C@H]1C[C@@](F)(C(=O)Nc2cc(-c3ccc(C(F)(F)F)cc3)n[nH]2)C1 [Compound 1-57, (1r,3r)-3-(cyanoamino)-1-fluoro-N-{3-[4-(trifluoro-methyl)phenyl]-1H-pyrazol-5-yl}cyclobutane-1-carboxamide] | 6.00 to 7.00 |
| CN(c1nc(Cl)c(C2CCCCC2)s1)C(=O)[C@]1(F)C[C@@H](NC#N)C1 [Compound 1-58, (1s,3s)-N-(4-chloro-5-cyclohexyl-1,3-thiazol-2-yl)-3-(cyanoamino)-1-fluoro-N-methylcyclobutane-1-carboxamide] | 6.00 to 7.00 |
| CC(C)(C)c1sc(NC(=O)[C@]2(F)C[C@@H](NC#N)C2)nc1Cl [Compound 1-59, (1s,3s)-N-(5-tert-butyl-4-chloro-1,3-thiazol-2-yl)-3-(cyanoamino)-1-fluorocyclobutane-1-carboxamide] | 6.00 to 7.00 |
| CC(C)(C)c1sc(NC(=O)[C@]2(F)C[C@H](NC#N)C2)nc1Cl [Compound 1-60, (1r,3r)-N-(5-tert-butyl-4-chloro-1,3-thiazol-2-yl)-3-(cyanoamino)-1-fluorocyclobutane-1-carboxamide] | > 7.00 |
| Cc1cc(NC(=O)[C@H]2C[C@H](NC#N)C2)cc(-c2ccccc2F)c1 [Compound 1-61, (1r,3r)-3-(cyanoamino)-N-[3-(2-fluorophenyl)-5-methylphenyl]cyclo-butane-1-carboxamide] | 6.00 to 7.00 |
| N#CN[C@H]1C[C@H](C(=O)Nc2cc(Cl)cc(C3CCCCC3)c2)C1 [Compound 1-62, (1r,3r)-N-(3-chloro-5-cyclohexylphenyl)-3-(cyanoamino)cyclo-butane-1-carboxamide] | > 7.00 |
| N#CN[C@H]1C[C@H](C(=O)Nc2ccc(F)c(N3CCCCC3)c2)C1 [Compound 1-63, (1r,3r)-3-(cyanoamino)-N-[4-fluoro-3-(piperidin-1-yl)phenyl]cyclobutane-1-carboxamide] | 6.00 to 7.00 |
| N#CN[C@H]1C[C@H](C(=O)Nc2nc3cccc(OC4CCC4)c3s2)C1 [Compound 1-64, (1r,3r)-3-(cyanoamino)-N-(7-cyclobutoxy-1,3-benzothiazol-2-yl)cyclobutane-1-carboxamide] | 6.00 to 7.00 |
| N#CN[C@H]1C[C@@](F)(C(=O)Nc2nc3cccc(OC4CCC4)c3s2)C1 [Compound 1-65, (1r,3r)-3-(cyanoamino)-N-(7-cyclobutoxy-1,3-benzothiazol-2-yl)-1-fluorocyclobutane-1-carboxamide] | > 7.00 |
| N#CN[C@H]1C[C@](F)(C(=O)Nc2nc3cccc(OC4CCC4)c3s2)C1 [Compound 1-66, (1s,3s)-3-(cyanoamino)-N-(7-cyclobutoxy-1,3-benzothiazol-2-yl)-1-fluorocyclobutane-1-carboxamide] | 6.00 to 7.00 |
| CC1(C)[C@@H]2CC[C@@H](CNC(=O)[C@H]3C[C@H](NC#N)C3)[C@H]1C2 [Compound 1-67, (1r,3r)-3-(cyanoamino)-N-{[(1R,2R,5R)-6,6-dimethylbicyclo[3.1.1]heptan-2-yl]methyl}cyclo-butane-1-carboxamide] | 6.00 to 7.00 |
| N#CN[C@H]1C[C@H](C(=O)Nc2nc(-c3ccc(Cl)cc3)cs2)C1 [Compound 1-68, (1r,3r)-N-[4-(4-chlorophenyl)-1,3-thiazol-2-yl]-3-(cyanoamino)cyclo-butane-1-carboxamide] | 6.00 to 7.00 |
| N#CN[C@H]1C[C@H](C(=O)Nc2cccc(-c3ccccc3)c2)C1 [Compound 1-69, (1r,3r)-3-(cyanoamino)-N-(3-phenylphenyl)cyclo-butane-1-carboxamide] | 6.00 to 7.00 |
